Key:
[1] = test system: HCT116 colon carcinoma xenograft; test: HCT116 colon carcinoma xenograft efficacy study; assay type: in vivo; conditions: female scid/bg mice, intraperitoneal, twice daily; FIG. 1
Method: Certain compounds were assayed for in vivo efficacy in xenograft models as follows.
Female scid/bg mice, approximately 6 weeks of age, were implanted subcutaneously on the right flank with 5×10^6 HCT116 cells per mouse in a volume of 100 uL of sterile PBS. When tumors reached a volume of 50-100 mm^3, mice were randomized to groups of n=10 to receive either vehicle or test compound delivered twice daily by intraperitoneal injection. Tumors were measured three times per week using Vernier calipers and tumor volume calculated using the formula: Volume=(Length×Width^2/2), where length and width are the longest perpendicular sides of the tumor. Dosing continued twice daily until control tumors reached a size of 2000 mm^3. Statistical comparisons were made using a 2-way ANOVA with Bonferroni post-test.

P493-6 (myc "on") cells = test: Cell proliferation assay (72 hrs, Cell Titer Glo or Viacount FACS); assay type: cell-based; conditions: read-out: Cell prolif P493 72 h IC50; P493 cells, 72 h
Method: P493-6 (myc “on”) cells were maintained in growth media (RPMI-1640, 10% FBS, 2 mM glutamine, 100 units/ml Penicillin and 100 μg/ml streptomycin) at 37° C. with 5% CO2. For compound assay, P493-6 cells were plated in 96-well V-bottom plates on the day of compound addition in 50 μl of growth media at a cell density of 200,000 cells/ml (10,000 cells/well). Compounds were serially diluted in 100% DMSO at 200-times the final concentration. Compounds were diluted 100-fold into growth media and then 50 μl of this mixture was added to cell plates making the final concentration of DMSO 0.5%. Cells were incubated with compound for 72 hrs at 37° C. with 5% CO2 and analyzed for antiproliferative effects either by Cell Titer Glo (Promega) or FACS analysis using the Viacount (Millipore) kit on the Guava instrument.

[2] = target: T1, recombinant form of Glutaminase 1 (GAC) (Homo sapiens, UniProt O94925); test: Recombinant enzyme assay - time dependence (60 minutes enzyme/compound preincubation); assay type: biochemical; conditions: read-out: GAC Delta N2 IC50 60 min preinc
Method: (§1) The enzyme/compound mix was sealed with sealing foil (USA Scientific) and allowed to incubate, with mild agitation, for 60 minutes at 20° C. Enzymatic reaction was started with the addition of 50 μL of substrate solution (50 mM Tris-HCl pH 8.0, 0.2 mM EDTA, 150 mM K2HPO4, 0.1 mg/ml BSA, 1 mM DTT, 20 mM L-glutamine, 2 mM NAD^+, and 10 ppm antifoam) and read in a Molecular Devices M5 plate reader at 20° C. The plate reader was configured to read absorbance (λ=340 nm) in kinetic mode for 15 minutes. Data was recorded as milli-absorbance units per minute and slopes were compared to a control compound and a DMSO-only control on the same plate. Compounds with slopes less than the DMSO control were considered inhibitors and plate variability was assessed using the control compound.

[3] = target: T1, recombinant form of Glutaminase 1 (GAC); test: Recombinant enzyme assay (GAC, GDH-coupled absorbance, no preincubation); assay type: biochemical; conditions: read-out: GAC Delta N2 IC50 no preinc
Method: as §1, with “Enzymatic” for “The enzyme/compound mix was sealed with sealing foil (USA Scientific) and allowed to incubate, with mild agitation, for 60 minutes at 20° C. Enzymatic”, “enzyme” for “substrate”, “DTT,” for “DTT, 20 mM L-glutamine, 2 mM NAD^+, and”, “antifoam, 4 units/ml GDH, 4 mM adenosine diphosphate, and 4 nM GAC)” for “antifoam)”

Caco-2 cell monolayers = test: Caco-2 permeability assay (bidirectional); assay type: in vitro ADME
Description: Caco-2 cells are commonly used in a confluent monolayer on a cell culture insert filter. When cultured in this format and under specific conditions, the cells become differentiated and polarized such that their phenotype, morphologically and functionally resembles the enterocytes lining the small intestine. The cell monolayer provides a physical and biochemical barrier to the passage of small molecules, and is widely used across the pharmaceutical industry as an in vitro model of the human small intestinal mucosa to predict the absorption of orally administered drugs (Hidalgo et al., Gastroenterology, 1989; Artursson, J. Pharm. Sci., 1990). The correlation between the in vitro apparent permeability (P ? app) across Caco-2 monolayers and the in vivo absorption is well established (Artursson et al., Biochem. Biophys. Res. Comm., 1991).
The present assay was used to determine the bidirectional permeability of the compounds of the invention through Caco-2 cell monolayers. Caco-2 cells were grown in confluent monolayers where the media of both the apical (A) and basolateral (B) sides were at pH 7.4. Compounds were dosed at 1 μM in the presence of 200 μM Lucifer Yellow, on the apical side (A→B) or the basolateral side (B→A) for assessment, in duplicate.

SMILES: O=C(CCN1CCOCC1)OCC(C(=O)Nc1nnc(CCCCc2nnc(NC(=O)C(COC(=O)CCN3CCOCC3)c3ccccc3)s2)s1)c1ccccc1 (centres unmarked) [Compound 188, {[5,5′-(butane-1,4-diyl)-bis(1,3,4-thiadiazole-5,2-diyl)]-bis(azanediyl)}-bis(3-oxo-2-phenylpropane-3,1-diyl)-bis(3-morpholinopropanoate)]
- tumor size [1]: reduced tumor size

SMILES: NCc1cccc(CC(=O)Nc2nnc(CCCCc3nnc(NC(=O)Cc4cccc(CN)c4)s3)s2)c1 [Compound 325]
- IC50 (P493-6 (myc "on") cells): 30 nM
- IC50 [2]: 170 nM
- IC50 [3]: 660 nM

SMILES: O=C(Cc1cccc(OC(F)(F)F)c1)Nc1ccc(CCCCc2nnc(NC(=O)Cc3cccc(F)c3)s2)nn1 [Compound 679]
- Significant Efflux (Caco-2 cell monolayers): No
